Earlier results in patent US12253532B2, “Mass spectrometric quantitation assay for metabolites of leflunomide” (Quest Diagnostics Investments LLC, priority 2010, dated 2025).
Like-named read-outs stand apart in the source and are kept apart here.

## CC(O)=C(C#N)C(=O)Nc1ccc(C(F)(F)F)cc1 [teriflunomide, 2-cyano-3-hydroxy-N-(4-trifluoromethylphenyl)-2-butenamide]
Patients on daily dosage of 5 mg leflunomide
  Mean steady state plasma concentration of teriflunomide: about 8800 ng/mL
Patients on daily dosage of 10 mg leflunomide
  Mean steady state plasma concentration of teriflunomide: ~18,000 ng/mL
Patients on daily dosage of 25 mg leflunomide
  Mean steady state plasma concentration of teriflunomide: ~63,000 ng/mL
